Reference: patent publication US20030083483A1, “Molecular interaction sites of vimentin RNA and methods of modulating the same” (priority 1999, published 2003)

System: protein synthesis (luciferase reporter)
Assay: transcription/translation assay based on expression of a luciferase plasmid
Assay type: biochemical
Settings: unit printed only in the Paromomycin cell and b169
Method: The compounds are screened for binding affinity using MASS or conventional high-throughput functional screens. The best scoring compounds from docking a 256-member library against the 16S A-site ribosomal RNA structure are shown in the table 5 below. The MASS assay was performed with the 27-mer model RNA sequence of the 16S A-site whose NMR structure has been determined. The transcription/translation assay was based on expression of a luciferase plasmid.

With `NC[C@@H]1O[C@H](O[C@H]2[C@@H](O)[C@H](O[C@@H]3[C@@H](O)[C@H](N)C[C@H](N)[C@H]3O[C@H]3O[C@H](CO)[C@@H](O)[C@H](O)[C@H]3N)O[C@@H]2CO)[C@H](N)[C@@H](O)[C@@H]1O` [Paromomycin] the “Activity: Inhibition of protein synthesis in transcription/translation assay for luciferase reporter” value was 0.3 µM.
